# Experimental data published in patent US9302999B2, “Substituted triazoles as herbicides” (E. I. DU PONT DE NEMOURS AND COMPANY, priority 2012, dated 2016).
# How the values were obtained:
# Type in all cases: in vivo
# [1] = tested on: morningglory (Ipomoea spp.); experiment: Test A pre-/postemergence: morningglory
# Procedure, shortened: (§1)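 Rating scale 0–100 (100 = complete control), visual, ~10 days after application in the greenhouse. Applications: preemergence directed soil spray; postemergence at 1–2 leaves.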
# [2] = tested on: foxtail, giant (giant foxtail, Setaria faberii); experiment: Test A pre-/postemergence: foxtail, giant
# Procedure, shortened: as §1
# [3] = tested on: crabgrass, large (large crabgrass, Digitaria sanguinalis); experiment: Test A pre-/postemergence: crabgrass, large
# Procedure, shortened: as §1
# [4] = tested on: pigweed (Amaranthus retroflexus); experiment: Test A pre-/postemergence: pigweed
# Procedure, shortened: as §1
# corn (Zea mays) = experiment: Test A pre-/postemergence: corn
# Procedure, shortened: as §1
# [5] = tested on: barnyardgrass (Echinochloa crus-galli); experiment: Test B flooded paddy: barnyardgrass; conditions: Flood, applied to paddy water at 2-leaf stage, visually evaluated after 13 to 15 days
# Description: (§2) Seeds selected from rice (Oryza sativa), sedge, umbrella (small-flower umbrella sedge Cyperus difformis), ducksalad (Heteranthera limosa), and barnyardgrass (Echinochloa crus-galli) were grown to the 2-leaf stage for testing. At time of treatment, test pots were flooded to 3 cm above the soil surface, treated by application of test compounds directly to the paddy water, and then maintained at that water depth for the duration of the test.
# (§3) Treated plants and controls were maintained in a greenhouse for 13 to 15 days, after which time all species were compared to controls and visually evaluated. Plant response ratings, summarized in Table B, are based on a scale of 0 to 100 where 0 is no effect and 100 is complete control. A dash (-) response means no test result.
# rice (Oryza sativa) = experiment: Test B flooded paddy: rice; conditions: Flood, applied to paddy water at 2-leaf stage, visually evaluated after 13 to 15 days
# Description: as §2, §3
# [6] = tested on: wheat (Triticum aestivum); experiment: Test A pre-/postemergence: wheat
# Procedure, shortened: as §1
# [7] = tested on: barnyardgrass (Echinochloa crus-galli); experiment: Test A pre-/postemergence: barnyardgrass
# Procedure, shortened: as §1
# [8] = tested on: velvetleaf (Abutilon theophrasti); experiment: Test A pre-/postemergence: velvetleaf
# Procedure, shortened: as §1
# [9] = tested on: sedge, umbrella (small-flower umbrella sedge Cyperus difformis); experiment: Test B flooded paddy: sedge, umbrella; conditions: Flood, applied to paddy water at 2-leaf stage, visually evaluated after 13 to 15 days
# Description: as §2, §3
# [10] = tested on: ducksalad (Heteranthera limosa); experiment: Test B flooded paddy: ducksalad; conditions: Flood, applied to paddy water at 2-leaf stage, visually evaluated after 13 to 15 days
# Description: as §2, §3
# [11] = Postemergence, 125 g ai/ha, 0 to 100 scale, 0 is no effect, 100 is complete control
# [12] = Postemergence, 500 g ai/ha, 0 to 100 scale, 0 is no effect, 100 is complete control
# [13] = Preemergence, 125 g ai/ha, 0 to 100 scale where 0 is no effect and 100 is complete control
# [14] = Preemergence, 500 g ai/ha, 0 to 100 scale (0 no effect, 100 complete control)
# [15] = Postemergence, 1000 g ai/ha, visual rating on 0 to 100 scale (0 no effect, 100 complete control), approximately ten days
# [16] = Preemergence, 1000 g ai/ha, 0 to 100 scale, 0 is no effect, 100 is complete control
# [17] = Postemergence, 500 g ai/ha, visual rating on 0 to 100 scale (0 no effect, 100 complete control), approximately ten days
smiles,measurement,setting,value
CCc1nn(-c2ccc(F)c(C(F)(F)F)c2)nc1Oc1ccnc(C(F)(F)F)c1 [Compound 180],"Plant response rating, Morningglory",[1]; [11],100
same,Morningglory plant response rating,[1]; [12],100
same,"Plant response rating, Morningglory",[1]; [13],40
same,"Plant response rating, Morningglory",[1]; [14],70
same,"Plant response rating, Foxtail, Giant",[2]; [11],90
same,"Foxtail, Giant plant response rating",[2]; [12],90
same,"Plant response rating, Foxtail, Giant",[2]; [13],100
same,"Plant response rating, Foxtail, Giant",[2]; [14],100
same,"Plant response rating, Crabgrass, Large",[3]; [11],90
same,"Crabgrass, Large plant response rating",[3]; [12],90
same,"Plant response rating, Crabgrass, Large",[3]; [13],100
same,"Plant response rating, Crabgrass, Large",[3]; [14],100
same,"Plant response rating, Pigweed",[4]; [11],100
same,Pigweed plant response rating,[4]; [12],100
same,"Plant response rating, Pigweed",[4]; [13],100
same,"Plant response rating, Pigweed",[4]; [14],100
same,"Plant response rating, Corn",corn (Zea mays); [11],20
same,Corn plant response rating,corn (Zea mays); [12],30
same,"Plant response rating, Corn",corn (Zea mays); [13],10
same,"Plant response rating, Corn",corn (Zea mays); [14],20
same,"Plant response rating, Barnyardgrass (0 to 100 scale, 0 is no effect, 100 is complete control)",[5]; 125 g ai/ha,0
same,"Plant response rating, Rice (0 to 100 scale, 0 is no effect, 100 is complete control)",rice (Oryza sativa); 125 g ai/ha,30
same,"Plant response rating, Wheat",[6]; [11],30
same,Wheat plant response rating,[6]; [12],40
same,"Plant response rating, Wheat",[6]; [13],20
same,"Plant response rating, Wheat",[6]; [14],40
same,"Plant response rating, Barnyardgrass",[7]; [11],50
same,Barnyardgrass plant response rating,[7]; [12],80
same,"Plant response rating, Barnyardgrass",[7]; [13],60
same,"Plant response rating, Barnyardgrass",[7]; [14],80
same,"Plant response rating, Velvetleaf",[8]; [11],70
same,Velvetleaf plant response rating,[8]; [12],100
same,"Plant response rating, Velvetleaf",[8]; [13],50
same,"Plant response rating, Velvetleaf",[8]; [14],60
same,"Plant response rating, Sedge, Umbrella (0 to 100 scale, 0 is no effect, 100 is complete control)",[9]; 125 g ai/ha,70
same,"Plant response rating, Ducksalad (0 to 100 scale, 0 is no effect, 100 is complete control)",[10]; 125 g ai/ha,60
Cc1nn(-c2ccc(F)cc2)nc1C(=O)c1ccnc(C(F)(F)F)c1 [Compound 167],Morningglory plant response rating,[1]; [15],100
same,"Foxtail, Giant plant response rating",[2]; [15],100
same,"Plant response rating, Foxtail, Giant",[2]; [16],100
same,"Crabgrass, Large plant response rating",[3]; [15],100
same,"Plant response rating, Crabgrass, Large",[3]; [16],100
same,Pigweed plant response rating,[4]; [15],100
same,"Plant response rating, Pigweed",[4]; [16],100
same,Corn plant response rating,corn (Zea mays); [15],30
same,"Plant response rating, Corn",corn (Zea mays); [16],30
same,"Plant response rating, Barnyardgrass (0 to 100 scale, 0 is no effect, 100 is complete control)",[5]; 125 g ai/ha,0
same,"Plant response rating, Rice (0 to 100 scale, 0 is no effect, 100 is complete control)",rice (Oryza sativa); 125 g ai/ha,30
same,Wheat plant response rating,[6]; [15],40
same,"Plant response rating, Wheat",[6]; [16],80
same,Barnyardgrass plant response rating,[7]; [15],100
same,"Plant response rating, Barnyardgrass",[7]; [16],100
same,Velvetleaf plant response rating,[8]; [15],50
same,"Plant response rating, Velvetleaf",[8]; [16],20
same,"Plant response rating, Sedge, Umbrella (0 to 100 scale, 0 is no effect, 100 is complete control)",[9]; 125 g ai/ha,50
same,"Plant response rating, Ducksalad (0 to 100 scale, 0 is no effect, 100 is complete control)",[10]; 125 g ai/ha,0
Oc1nn(-c2ccc(C(F)(F)F)cc2)nc1Cc1ccnc(C(F)(F)F)c1 [Compound 198],"Plant response rating, Morningglory",[1]; [11],10
same,Morningglory plant response rating,[1]; [12],20
same,"Plant response rating, Morningglory",[1]; [13],0
same,"Plant response rating, Morningglory",[1]; [14],0
same,"Plant response rating, Foxtail, Giant",[2]; [11],0
same,"Foxtail, Giant plant response rating",[2]; [12],10
same,"Plant response rating, Foxtail, Giant",[2]; [13],0
same,"Plant response rating, Foxtail, Giant",[2]; [14],0
same,"Plant response rating, Crabgrass, Large",[3]; [11],0
same,"Crabgrass, Large plant response rating",[3]; [12],10
same,"Plant response rating, Crabgrass, Large",[3]; [13],0
same,"Plant response rating, Crabgrass, Large",[3]; [14],0
same,"Plant response rating, Pigweed",[4]; [11],10
same,Pigweed plant response rating,[4]; [12],50
same,"Plant response rating, Pigweed",[4]; [13],0
same,"Plant response rating, Pigweed",[4]; [14],0
same,"Plant response rating, Corn",corn (Zea mays); [11],0
same,Corn plant response rating,corn (Zea mays); [12],10
same,"Plant response rating, Corn",corn (Zea mays); [13],0
same,"Plant response rating, Corn",corn (Zea mays); [14],0
same,"Plant response rating, Barnyardgrass (0 to 100 scale, 0 is no effect, 100 is complete control)",[5]; 250 g ai/ha,0
same,"Plant response rating, Rice (0 to 100 scale, 0 is no effect, 100 is complete control)",rice (Oryza sativa); 250 g ai/ha,0
same,"Plant response rating, Wheat",[6]; [11],0
same,Wheat plant response rating,[6]; [12],0
same,"Plant response rating, Wheat",[6]; [13],0
same,"Plant response rating, Wheat",[6]; [14],0
same,"Plant response rating, Barnyardgrass",[7]; [11],0
same,Barnyardgrass plant response rating,[7]; [12],0
same,"Plant response rating, Barnyardgrass",[7]; [13],0
same,"Plant response rating, Barnyardgrass",[7]; [14],0
same,"Plant response rating, Velvetleaf",[8]; [11],10
same,Velvetleaf plant response rating,[8]; [12],10
same,"Plant response rating, Velvetleaf",[8]; [13],0
same,"Plant response rating, Velvetleaf",[8]; [14],0
same,"Plant response rating, Sedge, Umbrella (0 to 100 scale, 0 is no effect, 100 is complete control)",[9]; 250 g ai/ha,0
same,"Plant response rating, Ducksalad (0 to 100 scale, 0 is no effect, 100 is complete control)",[10]; 250 g ai/ha,0
Cc1cc(Oc2nn(-c3ccc(F)cc3)nc2C)ccn1 [Compound 135],"Plant response rating, Morningglory",[1]; [11],0
same,Morningglory plant response rating,[1]; [17],10
same,"Plant response rating, Morningglory",[1]; [13],0
same,"Plant response rating, Morningglory",[1]; [14],0
same,"Foxtail, Giant plant response rating",[2]; [11],0
same,"Foxtail, Giant plant response rating",[2]; [17],10
same,"Plant response rating, Foxtail, Giant",[2]; [13],0
same,"Plant response rating, Foxtail, Giant",[2]; [14],0
same,"Crabgrass, Large plant response rating",[3]; [11],10
same,"Crabgrass, Large plant response rating",[3]; [17],20
same,"Plant response rating, Crabgrass, Large",[3]; [13],0
same,"Plant response rating, Crabgrass, Large",[3]; [14],0
same,"Plant response rating, Pigweed",[4]; [11],20
same,Pigweed plant response rating,[4]; [17],50
same,"Plant response rating, Pigweed",[4]; [13],0
same,"Plant response rating, Pigweed",[4]; [14],0
same,Corn plant response rating,corn (Zea mays); [11],10
same,Corn plant response rating,corn (Zea mays); [17],20
same,"Plant response rating, Corn",corn (Zea mays); [13],0
same,"Plant response rating, Corn",corn (Zea mays); [14],0
same,"Plant response rating, Barnyardgrass (0 to 100 scale, 0 is no effect, 100 is complete control)",[5]; 250 g ai/ha,0
same,"Plant response rating, Rice (0 to 100 scale, 0 is no effect, 100 is complete control)",rice (Oryza sativa); 250 g ai/ha,0
same,"Plant response rating, Wheat",[6]; [11],0
same,Wheat plant response rating,[6]; [17],0
same,"Plant response rating, Wheat",[6]; [13],0
same,"Plant response rating, Wheat",[6]; [14],0
same,Barnyardgrass plant response rating,[7]; [11],0
same,Barnyardgrass plant response rating,[7]; [17],10
same,"Plant response rating, Barnyardgrass",[7]; [13],0
same,"Plant response rating, Barnyardgrass",[7]; [14],0
same,"Plant response rating, Velvetleaf",[8]; [11],10
same,Velvetleaf plant response rating,[8]; [17],30
same,"Plant response rating, Velvetleaf",[8]; [13],0
same,"Plant response rating, Velvetleaf",[8]; [14],0
same,"Plant response rating, Sedge, Umbrella (0 to 100 scale, 0 is no effect, 100 is complete control)",[9]; 250 g ai/ha,0
same,"Plant response rating, Ducksalad (0 to 100 scale, 0 is no effect, 100 is complete control)",[10]; 250 g ai/ha,0
